From US9376436B2, “2-(pyridin-2yl)-1, 7-diaza-spiro [4.4] nonane-6-one compound as voltage-gated sodium channels modulators” (CONVERGENCE PHARMACEUTICALS LIMITED, priority 2011, dated 2016)
Where a name gives a salt, the structure may show the parent alone. Read-outs that look alike come from different tables or passages of the source.

Molecular target: T1, hNaV1.7 (Homo sapiens, UniProt Q15858)
T1 construct: expressed in transfected cells; host or cells: HEK293
Test: QPatch NaV1.7 assay (whole-cell patch clamp, QPatch16x)
Type: cell-based
Conditions: HEK293-hNaV1.7 cells
Outline: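 Automated whole-cell recordings in hNaV1.7-expressing HEK293 cells, holding at either −90 mV (mostly closed channels) or the half-inactivation voltage. Compounds applied cumulatively at four concentrations for 120 s each; peak current on 20 ms depolarisation to 0 mV fitted by Hill equation to yield pIC50.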

[1] = holding voltage V1/2 SSI (half of channels inactivated), read-out: QP Nav1.7 SSI vhalf pIC50 (converted)
[2] = holding voltage −90 mV (most channels closed), read-out: QP Nav1.7 −90 mV pIC50 (converted)

T1 sequence (Q15858 whole entry): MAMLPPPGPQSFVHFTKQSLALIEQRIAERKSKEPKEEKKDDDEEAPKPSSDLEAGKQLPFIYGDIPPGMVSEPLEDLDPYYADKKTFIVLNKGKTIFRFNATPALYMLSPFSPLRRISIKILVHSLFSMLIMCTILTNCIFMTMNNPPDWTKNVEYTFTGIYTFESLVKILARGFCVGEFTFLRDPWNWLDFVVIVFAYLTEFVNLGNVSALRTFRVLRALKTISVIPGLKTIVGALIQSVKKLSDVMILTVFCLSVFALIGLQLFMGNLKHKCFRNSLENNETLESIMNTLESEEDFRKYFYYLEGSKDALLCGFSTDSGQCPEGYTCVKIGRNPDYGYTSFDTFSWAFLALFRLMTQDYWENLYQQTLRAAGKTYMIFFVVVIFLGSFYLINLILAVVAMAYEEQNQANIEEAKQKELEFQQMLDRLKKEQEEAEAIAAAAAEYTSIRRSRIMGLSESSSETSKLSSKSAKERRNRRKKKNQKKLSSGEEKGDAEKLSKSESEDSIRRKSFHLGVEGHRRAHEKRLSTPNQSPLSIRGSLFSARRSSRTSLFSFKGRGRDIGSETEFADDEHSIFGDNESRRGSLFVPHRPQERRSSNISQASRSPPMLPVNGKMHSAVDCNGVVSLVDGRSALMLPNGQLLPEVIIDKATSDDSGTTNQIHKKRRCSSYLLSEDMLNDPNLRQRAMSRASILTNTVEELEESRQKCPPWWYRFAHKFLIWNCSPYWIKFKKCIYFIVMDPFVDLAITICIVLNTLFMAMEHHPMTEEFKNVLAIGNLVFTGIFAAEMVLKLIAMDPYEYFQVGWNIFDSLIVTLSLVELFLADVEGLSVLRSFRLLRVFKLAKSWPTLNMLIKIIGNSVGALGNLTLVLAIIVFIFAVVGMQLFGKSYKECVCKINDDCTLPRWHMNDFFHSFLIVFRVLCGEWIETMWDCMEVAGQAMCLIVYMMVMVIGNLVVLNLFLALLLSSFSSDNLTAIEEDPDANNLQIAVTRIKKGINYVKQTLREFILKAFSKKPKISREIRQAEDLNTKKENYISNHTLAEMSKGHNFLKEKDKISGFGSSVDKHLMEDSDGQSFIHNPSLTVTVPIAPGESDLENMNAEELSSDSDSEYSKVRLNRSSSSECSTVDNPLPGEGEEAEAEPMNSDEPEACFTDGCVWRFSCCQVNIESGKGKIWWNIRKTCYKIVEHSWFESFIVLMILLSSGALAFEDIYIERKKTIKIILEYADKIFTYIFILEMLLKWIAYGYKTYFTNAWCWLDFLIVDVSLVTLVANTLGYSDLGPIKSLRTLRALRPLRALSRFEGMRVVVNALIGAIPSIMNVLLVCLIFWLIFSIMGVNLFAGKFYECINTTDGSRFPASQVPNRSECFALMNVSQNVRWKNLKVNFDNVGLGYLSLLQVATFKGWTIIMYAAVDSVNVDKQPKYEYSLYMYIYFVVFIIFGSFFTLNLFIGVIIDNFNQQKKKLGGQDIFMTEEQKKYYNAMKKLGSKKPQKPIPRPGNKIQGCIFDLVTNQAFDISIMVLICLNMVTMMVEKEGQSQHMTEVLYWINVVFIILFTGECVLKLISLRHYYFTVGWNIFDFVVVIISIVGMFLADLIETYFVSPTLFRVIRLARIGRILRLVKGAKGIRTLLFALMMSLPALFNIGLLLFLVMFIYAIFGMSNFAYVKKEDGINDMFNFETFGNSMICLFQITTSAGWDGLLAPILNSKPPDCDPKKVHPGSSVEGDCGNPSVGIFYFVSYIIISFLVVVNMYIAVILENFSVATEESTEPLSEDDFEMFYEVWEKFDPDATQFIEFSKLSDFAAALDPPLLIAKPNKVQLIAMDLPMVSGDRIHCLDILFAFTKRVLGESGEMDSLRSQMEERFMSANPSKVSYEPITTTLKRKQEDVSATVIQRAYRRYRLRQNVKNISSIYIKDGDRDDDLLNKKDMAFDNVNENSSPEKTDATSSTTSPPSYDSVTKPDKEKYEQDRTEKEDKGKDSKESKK

| IC50 [1] [µM] | IC50 [2] [µM] | Structure (SMILES) |
| --- | --- | --- |
| 25.1 | 200 | CCOc1ccc(F)c(-c2cc([C@@H]3CC[C@@]4(CCN(C)C4=O)N3)ncc2C)c1 [Example 138, (2S,5S)-2-[4-(5-Ethoxy-2-fluoro-phenyl)-5-methyl-2-pyridyl]-7-methyl-1,7-diazaspiro[4.4]nonan-6-one hydrochloride] |
| 6.31 | 63.1 | CCOc1ccc(F)c(-c2cc([C@H]3CC[C@]4(CCN(C)C4=O)N3)nc(C)c2C)c1 [Example 141, (2R,5R)-2-[4-(5-Ethoxy-2-fluoro-phenyl)-5,6-dimethyl-2-pyridyl]-7-methyl-1,7-diazaspiro[4.4]nonan-6-one hydrochloride] |
| 6.31 | 79.4 | CCOc1ccc(F)c(-c2ccnc([C@@H]3CC[C@]4(CCN(C)C4=O)N3)c2)c1 [Example 145, (2S,5R)-2-[4-(5-Ethoxy-2-fluoro-phenyl)-2-pyridyl]-7-methyl-1,7-diazaspiro[4.4]nonan-6-one hydrochloride] |
| 3.16 | 50.1 | CCOc1ccc(F)c(-c2ccnc([C@@H]3CC[C@@]4(CCN(C)C4=O)N3)c2)c1 [Example 147, (2S,5S)-2-[4-(5-Ethoxy-2-fluoro-phenyl)-2-pyridyl]-7-methyl-1,7-diazaspiro[4.4]nonan-6-one hydrochloride] |
| 12.6 | 126 | CCOc1cc(-c2ccnc([C@@H]3CC[C@@]4(CCN(C)C4=O)N3)c2)c(F)cc1C [Example 150, (2S,5S)-2-[4-(5-Ethoxy-2-fluoro-4-methyl-phenyl)-2-pyridyl]-7-methyl-1,7-diazaspiro[4.4]nonan-6-one hydrochloride] |
| 15.8 | 100 | CCOc1cc(-c2ccnc([C@H]3CC[C@@]4(CCN(C)C4=O)N3)c2)c(F)cc1C [Example 151, (2R,5S)-2-[4-(5-Ethoxy-2-fluoro-4-methyl-phenyl)-2-pyridyl]-7-methyl-1,7-diazaspiro[4.4]nonan-6-one hydrochloride] |
| 15.8 | 200 | COc1cnc([C@H]2CC[C@]3(CCN(C)C3=O)N2)cc1-c1ccc(C(F)(F)F)cc1 [Example 152, (2R,5R)-2-[5-Methoxy-4-[4-(trifluoromethyl)phenyl]-2-pyridyl]-7-methyl-1,7-diazaspiro[4.4]nonan-6-one hydrochloride] |
| 3.98 | 39.8 | COc1cnc([C@H]2CC[C@@]3(CCN(C)C3=O)N2)cc1-c1ccc(C(F)(F)F)cc1 [Example 155, (2R,5S)-2-[5-Methoxy-4-[4-(trifluoromethyl)phenyl]-2-pyridyl]-7-methyl-1,7-diazaspiro[4.4]nonan-6-one hydrochloride] |
| 39.8 | 1260 | CN1CC[C@@]2(CC[C@H](c3cc(-c4cccc5cccnc45)ccn3)N2)C1=O [Example 164, (2R,5S)-7-Methyl-2-[4-(8-quinolyl)-2-pyridyl]-1,7-diazaspiro[4.4]nonan-6-one hydrochloride] |

Further lines, the compound ahead of its results:

| Structure (SMILES) | IC50 [1] [µM] | IC50 [2] [µM] |
| --- | --- | --- |
| CCOc1ccc(F)c(-c2cc([C@H]3CC[C@@]4(CCN(C)C4=O)N3)ncc2C)c1 [Example 137, (2R,5S)-2-[4-(5-Ethoxy-2-fluoro-phenyl)-5-methyl-2-pyridyl]-7-methyl-1,7-diazaspiro[4.4]nonan-6-one hydrochloride] | 20 | 158 |
| CCOc1ccc(F)c(-c2cc([C@@H]3CC[C@]4(CCN(C)C4=O)N3)ncc2C)c1 [Example 139, (2S,5R)-2-[4-(5-Ethoxy-2-fluoro-phenyl)-5-methyl-2-pyridyl]-7-methyl-1,7-diazaspiro[4.4]nonan-6-one hydrochloride] | 39.8 | 251 |
| CCOc1ccc(F)c(-c2cc([C@H]3CC[C@]4(CCN(C)C4=O)N3)ncc2C)c1 [Example 140, (2R,5R)-2-[4-(5-Ethoxy-2-fluoro-phenyl)-5-methyl-2-pyridyl]-7-methyl-1,7-diazaspiro[4.4]nonan-6-one hydrochloride] | 31.6 | 100 |
| CCOc1ccc(F)c(-c2cc([C@@H]3CC[C@@]4(CCN(C)C4=O)N3)nc(C)c2C)c1 [Example 142, (2S,5S)-2-[4-(5-Ethoxy-2-fluoro-phenyl)-5,6-dimethyl-2-pyridyl]-7-methyl-1,7-diazaspiro[4.4]nonan-6-one hydrochloride] | 0.794 | 15.8 |
| CCOc1ccc(F)c(-c2cc([C@@H]3CC[C@]4(CCN(C)C4=O)N3)nc(C)c2C)c1 [Example 143, (2S,5R)-2-[4-(5-Ethoxy-2-fluoro-phenyl)-5,6-dimethyl-2-pyridyl]-7-methyl-1,7-diazaspiro[4.4]nonan-6-one hydrochloride] | 10 | 63.1 |
| CCOc1ccc(F)c(-c2cc([C@H]3CC[C@@]4(CCN(C)C4=O)N3)nc(C)c2C)c1 [Example 144, (2R,5S)-2-[4-(5-Ethoxy-2-fluoro-phenyl)-5,6-dimethyl-2-pyridyl]-7-methyl-1,7-diazaspiro[4.4]nonan-6-one hydrochloride] | 3.98 | 31.6 |
| CCOc1ccc(F)c(-c2ccnc([C@H]3CC[C@]4(CCN(C)C4=O)N3)c2)c1 [Example 146, (2R,5R)-2-[4-(5-Ethoxy-2-fluoro-phenyl)-2-pyridyl]-7-methyl-1,7-diazaspiro[4.4]nonan-6-one hydrochloride] | 2 | 31.6 |
| CCOc1cc(-c2ccnc([C@@H]3CC[C@@]4(CCN(C)C4=O)N3)c2)c(F)cc1F [Example 148, (2S,5S)-2-[4-(5-Ethoxy-2,4-difluoro-phenyl)-2-pyridyl]-7-methyl-1,7-diazaspiro[4.4]nonan-6-one hydrochloride] | 31.6 | 398 |
| CCOc1cc(-c2ccnc([C@H]3CC[C@@]4(CCN(C)C4=O)N3)c2)c(F)cc1F [Example 149, (2R,5S)-2-[4-(5-Ethoxy-2,4-difluoro-phenyl)-2-pyridyl]-7-methyl-1,7-diazaspiro[4.4]nonan-6-one hydrochloride] | 25.1 | 398 |
| COc1cnc([C@@H]2CC[C@]3(CCN(C)C3=O)N2)cc1-c1ccc(C(F)(F)F)cc1 [Example 153, (2S,5R)-2-[5-Methoxy-4-[4-(trifluoromethyl)phenyl]-2-pyridyl]-7-methyl-1,7-diazaspiro[4.4]nonan-6-one hydrochloride] | 12.6 | 158 |
| COc1cnc([C@@H]2CC[C@@]3(CCN(C)C3=O)N2)cc1-c1ccc(C(F)(F)F)cc1 [Example 154, (2S,5S)-2-[5-Methoxy-4-[4-(trifluoromethyl)phenyl]-2-pyridyl]-7-methyl-1,7-diazaspiro[4.4]nonan-6-one hydrochloride] | 12.6 | 100 |
| CN1CC[C@@]2(CC[C@H](c3cc(-c4ccc(OC(F)F)cc4F)ccn3)N2)C1=O [Example 156, (2R,5S)-2-[4-(4-Difluoromethoxy-2-fluoro-phenyl)-pyridin-2-yl]-7-methyl-1,7-diaza-spiro[4.4]nonan-6-one hydrochloride] | 20 | 126 |
| CN1CC[C@@]2(CC[C@H](c3cc(-c4cn(C)c5ccccc45)ccn3)N2)C1=O [Example 157, (2R,5S)-7-Methyl-2-[4-(1-methyl-1H-indol-3-yl)-pyridin-2-yl]-1,7-diaza-spiro[4.4]nonan-6-one hydrochloride] | 25.1 | 79.4 |
| CCOc1c(F)cccc1-c1ccnc([C@H]2CC[C@@]3(CCN(C)C3=O)N2)c1 [Example 158, (2R,5S)-2-[4-(2-Ethoxy-3-fluoro-phenyl)-2-pyridyl]-7-methyl-1,7-diazaspiro[4.4]nonan-6-one hydrochloride] | 63.1 | 1260 |
| CC(C)c1ccc(F)c(-c2ccnc([C@H]3CC[C@@]4(CCN(C)C4=O)N3)c2)c1 [Example 159, (2R,5S)-2-[4-(2-Fluoro-5-isopropyl-phenyl)-2-pyridyl]-7-methyl-1,7-diazaspiro[4.4]nonan-6-one hydrochloride] | 7.94 | 31.6 |
| CN1CC[C@@]2(CC[C@H](c3cc(-c4cc(N5CCCC5=O)ccc4F)ccn3)N2)C1=O [Example 160, (2R,5S)-2-[4-[2-Fluoro-5-(2-oxopyrrolidin-1-yl)phenyl]-2-pyridyl]-7-methyl-1,7-diazaspiro[4.4]nonan-6-one hydrochloride] | 1580 | – |
| CC(C)Oc1ccc(-c2ccnc([C@@H]3CC[C@@]4(CCN(C)C4=O)N3)c2)cc1 [Example 161, (2S,5S)-2-[4-(4-Isopropoxyphenyl)-2-pyridyl]-7-methyl-1,7-diazaspiro[4.4]nonan-6-one hydrochloride] | 39.8 | 126 |
| CC(C)Oc1ccc(-c2ccnc([C@H]3CC[C@@]4(CCN(C)C4=O)N3)c2)cc1 [Example 162, (2R,5S)-2-[4-(4-Isopropoxyphenyl)-2-pyridyl]-7-methyl-1,7-diazaspiro[4.4]nonan-6-one hydrochloride] | 3.98 | 15.8 |
| COc1ccc(-c2ccnc([C@H]3CC[C@@]4(CCN(C)C4=O)N3)c2)cc1OC [Example 163, (2R,5S)-2-[4-(3,4-Dimethoxyphenyl)-2-pyridyl]-7-methyl-1,7-diazaspiro[4.4]nonan-6-one hydrochloride] | – | 7940 |
| CN1CC[C@@]2(CC[C@H](c3cc(-c4cccc(Cl)c4C#N)ccn3)N2)C1=O [Example 165, 2-Chloro-6-[2-[(2R,5S)-7-methyl-6-oxo-1,7-diazaspiro[4.4]nonan-2-yl]-4-pyridyl]benzonitrile hydrochloride] | 100 | 158 |
| CN1CC[C@@]2(CC[C@H](c3cc(-c4ccc5c(c4)CCO5)ccn3)N2)C1=O [Example 166, (2R,5S)-2-[4-(2,3-Dihydrobenzofuran-5-yl)-2-pyridyl]-7-methyl-1,7-diazaspiro[4.4]nonan-6-one hydrochloride] | 126 | 2000 |
